“Also recorded” adds a separate entry of the source. Where a SMILES comes first, the peptide text is derived from it. Bridges are numbered along the chain shown (N, C = ends).
Columns and labels:
rat α3β2 nAChR = rat α3β2 nAChR (Rattus norvegicus, UniProt P04757+P12390); assay: cell-based
rat α6/α3β2β3 nAChR = rat α6/α3β2β3 nAChR (Rattus norvegicus, UniProt P04757+P12390+P12391+P43143); assay: cell-based
rat α7 nAChR = rat α7 nAChR (Rattus norvegicus, UniProt Q05941); assay: cell-based; format: cell-based
rat α4β2 nAChR = rat α4β2 nAChR (Rattus norvegicus, UniProt P09483+P12390); assay: cell-based; format: cell-based
rat α4β4 nAChR = rat α4β4 nAChR (Rattus norvegicus, UniProt P09483+P12392); assay: cell-based; format: cell-based
rat α3β4 nAChR = rat α3β4 nAChR (Rattus norvegicus, UniProt P04757+P12392); assay: cell-based; format: cell-based
rat α2β2 nAChR = rat α2β2 nAChR (Rattus norvegicus, UniProt P12389+P12390); assay: cell-based; format: cell-based
rat α2β4 nAChR = rat α2β4 nAChR (Rattus norvegicus, UniProt P12389+P12392); assay: cell-based; format: cell-based
human α9α10 nAChR = human α9α10 nAChR (Homo sapiens, UniProt Q9GZZ6+Q9UGM1); assay: cell-based; format: cell-based
[1] = tested on: common mammalian nAChR combinations; format: cell-based

Chain of rat α4β2 nAChR (P09483 31-630 limits assumed): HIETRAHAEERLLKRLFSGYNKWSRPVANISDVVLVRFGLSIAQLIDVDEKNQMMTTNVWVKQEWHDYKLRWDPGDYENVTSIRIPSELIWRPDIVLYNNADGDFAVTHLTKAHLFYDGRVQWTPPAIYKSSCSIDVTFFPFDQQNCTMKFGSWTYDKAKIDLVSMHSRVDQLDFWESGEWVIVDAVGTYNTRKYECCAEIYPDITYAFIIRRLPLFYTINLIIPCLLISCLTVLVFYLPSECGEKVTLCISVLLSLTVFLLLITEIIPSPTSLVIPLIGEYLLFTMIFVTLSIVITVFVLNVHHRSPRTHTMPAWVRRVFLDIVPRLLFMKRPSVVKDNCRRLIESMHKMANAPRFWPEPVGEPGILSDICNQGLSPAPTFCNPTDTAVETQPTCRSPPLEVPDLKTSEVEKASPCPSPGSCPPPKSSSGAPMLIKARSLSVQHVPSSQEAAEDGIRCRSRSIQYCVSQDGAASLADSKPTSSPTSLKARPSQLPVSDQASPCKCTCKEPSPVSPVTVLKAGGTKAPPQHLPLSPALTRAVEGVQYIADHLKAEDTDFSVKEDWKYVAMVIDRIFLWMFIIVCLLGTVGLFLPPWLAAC
Chain of rat α4β2 nAChR (P12390 25-500 limits assumed): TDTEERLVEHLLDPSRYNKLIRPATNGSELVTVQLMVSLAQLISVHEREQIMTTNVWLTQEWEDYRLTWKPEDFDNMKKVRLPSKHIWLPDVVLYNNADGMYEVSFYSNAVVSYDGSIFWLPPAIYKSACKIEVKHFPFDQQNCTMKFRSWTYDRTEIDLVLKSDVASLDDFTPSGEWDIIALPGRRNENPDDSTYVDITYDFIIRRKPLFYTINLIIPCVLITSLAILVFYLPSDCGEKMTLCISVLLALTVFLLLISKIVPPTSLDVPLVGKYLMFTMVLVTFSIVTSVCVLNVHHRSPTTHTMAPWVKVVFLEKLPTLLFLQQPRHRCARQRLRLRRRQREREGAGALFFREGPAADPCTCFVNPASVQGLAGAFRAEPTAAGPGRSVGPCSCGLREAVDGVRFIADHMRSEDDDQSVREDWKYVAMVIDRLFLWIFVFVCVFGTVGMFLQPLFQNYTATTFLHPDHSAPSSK
Chain of rat α4β4 nAChR (P09483 31-630 limits assumed): as the sequence (P09483 31-630 limits assumed) above
Chain of rat α4β4 nAChR (P12392 21-495 limits assumed): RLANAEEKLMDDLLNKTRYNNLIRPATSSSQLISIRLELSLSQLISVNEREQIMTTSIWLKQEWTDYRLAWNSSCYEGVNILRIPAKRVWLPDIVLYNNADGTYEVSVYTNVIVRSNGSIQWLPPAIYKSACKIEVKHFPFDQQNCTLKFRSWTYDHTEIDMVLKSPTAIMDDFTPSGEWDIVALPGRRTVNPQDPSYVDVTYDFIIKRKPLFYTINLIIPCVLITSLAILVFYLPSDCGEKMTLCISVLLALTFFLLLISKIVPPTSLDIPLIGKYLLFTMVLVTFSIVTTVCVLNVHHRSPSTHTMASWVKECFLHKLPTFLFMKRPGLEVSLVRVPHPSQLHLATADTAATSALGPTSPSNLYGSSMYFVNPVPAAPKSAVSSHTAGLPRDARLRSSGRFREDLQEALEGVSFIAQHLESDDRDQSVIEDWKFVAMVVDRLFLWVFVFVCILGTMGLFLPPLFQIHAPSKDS
Chain of rat α2β4 nAChR (P12389 28-511 limits assumed): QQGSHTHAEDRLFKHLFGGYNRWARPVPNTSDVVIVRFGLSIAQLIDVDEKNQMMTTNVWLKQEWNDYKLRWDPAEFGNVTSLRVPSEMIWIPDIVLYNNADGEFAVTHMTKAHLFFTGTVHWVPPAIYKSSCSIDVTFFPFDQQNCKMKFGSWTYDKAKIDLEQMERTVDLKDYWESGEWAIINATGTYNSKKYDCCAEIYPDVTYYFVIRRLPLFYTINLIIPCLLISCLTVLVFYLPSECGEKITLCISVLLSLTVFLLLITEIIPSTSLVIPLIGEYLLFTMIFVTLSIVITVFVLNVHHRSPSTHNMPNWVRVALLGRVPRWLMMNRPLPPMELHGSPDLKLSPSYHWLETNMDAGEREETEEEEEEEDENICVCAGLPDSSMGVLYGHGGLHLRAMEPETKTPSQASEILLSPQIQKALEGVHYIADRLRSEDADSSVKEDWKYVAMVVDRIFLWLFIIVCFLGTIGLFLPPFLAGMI
Chain of rat α2β4 nAChR (P12392 21-495 limits assumed): as the sequence (P12392 21-495 limits assumed) above
Chain of rat α2β2 nAChR (P12389 28-511 limits assumed): as the sequence (P12389 28-511 limits assumed) above
Chain of rat α2β2 nAChR (P12390 25-500 limits assumed): as the sequence (P12390 25-500 limits assumed) above
Chain of rat α3β4 nAChR (P04757 26-499 limits assumed): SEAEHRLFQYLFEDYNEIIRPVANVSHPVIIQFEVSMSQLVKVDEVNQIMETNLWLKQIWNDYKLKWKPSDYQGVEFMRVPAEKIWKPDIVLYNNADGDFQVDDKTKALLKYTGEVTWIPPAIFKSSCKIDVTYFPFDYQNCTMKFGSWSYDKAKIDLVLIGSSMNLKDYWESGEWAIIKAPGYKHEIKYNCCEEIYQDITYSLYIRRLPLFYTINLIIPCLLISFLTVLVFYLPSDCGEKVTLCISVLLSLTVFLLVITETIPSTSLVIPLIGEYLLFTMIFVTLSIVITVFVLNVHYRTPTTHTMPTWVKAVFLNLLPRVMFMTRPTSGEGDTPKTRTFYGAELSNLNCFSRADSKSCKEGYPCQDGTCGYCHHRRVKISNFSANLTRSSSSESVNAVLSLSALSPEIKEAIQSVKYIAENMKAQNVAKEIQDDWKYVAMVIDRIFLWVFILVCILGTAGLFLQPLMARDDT
Chain of rat α3β4 nAChR (P12392 21-495 limits assumed): as the sequence (P12392 21-495 limits assumed) above
Chain of human α9α10 nAChR (Q9UGM1 26-479 limits assumed): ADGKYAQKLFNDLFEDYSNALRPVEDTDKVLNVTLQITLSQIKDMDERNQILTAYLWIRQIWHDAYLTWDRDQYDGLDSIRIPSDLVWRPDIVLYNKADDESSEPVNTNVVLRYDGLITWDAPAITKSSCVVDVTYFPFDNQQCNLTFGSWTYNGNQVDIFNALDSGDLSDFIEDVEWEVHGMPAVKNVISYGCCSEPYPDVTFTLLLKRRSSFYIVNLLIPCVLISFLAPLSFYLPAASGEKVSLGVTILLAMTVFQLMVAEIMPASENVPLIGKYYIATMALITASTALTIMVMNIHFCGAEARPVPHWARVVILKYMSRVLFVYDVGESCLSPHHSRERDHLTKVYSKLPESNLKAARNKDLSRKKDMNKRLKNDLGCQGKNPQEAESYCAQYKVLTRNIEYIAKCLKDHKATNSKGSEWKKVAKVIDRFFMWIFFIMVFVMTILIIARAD
Chain of human α9α10 nAChR (Q9GZZ6 25-450 limits assumed): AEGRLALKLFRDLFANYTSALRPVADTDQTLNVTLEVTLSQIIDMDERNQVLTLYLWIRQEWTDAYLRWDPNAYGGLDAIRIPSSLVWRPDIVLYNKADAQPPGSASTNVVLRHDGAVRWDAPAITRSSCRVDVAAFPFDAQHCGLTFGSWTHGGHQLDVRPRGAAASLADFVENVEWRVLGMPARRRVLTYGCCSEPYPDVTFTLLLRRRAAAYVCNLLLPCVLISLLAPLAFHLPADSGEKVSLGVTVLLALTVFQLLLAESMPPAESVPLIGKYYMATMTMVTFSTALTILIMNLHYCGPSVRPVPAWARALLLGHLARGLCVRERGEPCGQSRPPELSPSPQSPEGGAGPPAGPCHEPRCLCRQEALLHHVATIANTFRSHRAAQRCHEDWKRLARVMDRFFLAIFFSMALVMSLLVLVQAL
Chain of rat α7 nAChR (Q05941 23-502 limits assumed): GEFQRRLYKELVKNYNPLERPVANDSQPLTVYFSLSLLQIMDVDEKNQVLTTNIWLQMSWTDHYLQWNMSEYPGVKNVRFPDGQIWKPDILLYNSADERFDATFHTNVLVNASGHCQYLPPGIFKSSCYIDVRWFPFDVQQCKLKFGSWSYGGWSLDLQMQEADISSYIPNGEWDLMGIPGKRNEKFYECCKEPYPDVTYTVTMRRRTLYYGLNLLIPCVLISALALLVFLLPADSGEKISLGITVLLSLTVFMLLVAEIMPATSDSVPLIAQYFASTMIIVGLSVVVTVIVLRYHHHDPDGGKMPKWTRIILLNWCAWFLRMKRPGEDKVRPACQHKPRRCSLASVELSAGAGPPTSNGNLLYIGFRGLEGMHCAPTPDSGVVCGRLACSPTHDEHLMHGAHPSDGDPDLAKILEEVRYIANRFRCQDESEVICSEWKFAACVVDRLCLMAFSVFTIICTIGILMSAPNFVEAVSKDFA
Chain of rat α3β2 nAChR (P04757 26-499 limits assumed): as the sequence (P04757 26-499 limits assumed) above
Chain of rat α3β2 nAChR (P12390 25-500 limits assumed): as the sequence (P12390 25-500 limits assumed) above

`CC(C)C[C@@H]1NC(=O)[C@H](CC(=O)O)NC(=O)[C@H](CO)NC(=O)[C@H](Cc2c[nH]cn2)NC(=O)[C@H](CCC(N)=O)NC(=O)[C@H](C(C)C)NC(=O)[C@H](CCC(N)=O)NC(=O)[C@@H]2CSSC[C@H](N)C(=O)N[C@@H](CSSC[C@@H](C(=O)O)NC1=O)C(=O)N[C@@H](CO)C(=O)N[C@@H](CC(N)=O)C(=O)N1CCC[C@H]1C(=O)N[C@@H](C)C(=O)N2` [Δ-CIC] (H-CCSNPACQVQHSDLC-OH; disulfide 1-7, 2-15) showed an IC50 (rat α3β2 nAChR) of 4.56 µM, an IC50 (rat α6/α3β2β3 nAChR) of 1.08 µM and an IC50 (rat α7 nAChR) of over 10 µM. The “inhibition (in words)” value (rat α7 nAChR) was “no inhibition was detected; also recorded: No effects were observed”, the IC50 (rat α4β2 nAChR) was over 10 µM and the “inhibition (in words)” value (rat α4β2 nAChR) was “no inhibition was detected; also recorded: No effects were observed”. The IC50 (rat α4β4 nAChR) was over 10 µM, the “inhibition (in words)” value (rat α4β4 nAChR) was “no inhibition was detected; also recorded: No effects were observed” and the IC50 (rat α3β4 nAChR) was over 10 µM. The “inhibition (in words)” value (rat α3β4 nAChR) was “no inhibition was detected; also recorded: No effects were observed”, the IC50 (rat α2β2 nAChR) was over 10 µM and the “inhibition (in words)” value (rat α2β2 nAChR) was “no inhibition was detected; also recorded: No effects were observed”. The IC50 (rat α2β4 nAChR) was over 10 µM, the “inhibition (in words)” value (rat α2β4 nAChR) was “no inhibition was detected; also recorded: No effects were observed” and the IC50 (human α9α10 nAChR) was over 10 µM. For the same compound, the “inhibition (in words)” value (human α9α10 nAChR) was “no inhibition was detected; also recorded: No effects were observed” and the “dissociation behavior, CIC versus Δ-CIC” value [1] was “no difference in dissociation behavior”.
